From the kinase profiling compilation of Christmann-Franck et al. (2016)

Experiments:
Assay in all cases: Caliper, Mobility shift assay off-chip
[1] = target: ABL1 (human) (UniProt P00519)
[2] = target: ABL2 (human) (UniProt P42684)
[3] = target: AKT3 (human) (UniProt Q9Y243)
[4] = target: BRSK1 (human) (UniProt Q8TDC3)
[5] = target: BRSK2 (human) (UniProt Q8IWQ3)
[6] = target: CAMK2B (human) (UniProt Q13554)
[7] = target: CAMK2G (human) (UniProt Q13555); conditions: compound 1.0 µM
[8] = target: CDK2 (human) (UniProt P24941)
[9] = target: CHEK1 (human) (UniProt O14757)
[10] = target: CSNK1D (human) (UniProt P48730)
[11] = target: DCLK2 (human) (UniProt Q8N568)
[12] = target: DYRK1A (human) (UniProt Q13627)
[13] = target: FGFR2 (human) (UniProt P21802)
[14] = target: FGFR3 (human) (UniProt P22607)
[15] = target: GSK3B (human) (UniProt P49841)
Chain of GSK3B (human) (P49841 whole entry, looked up): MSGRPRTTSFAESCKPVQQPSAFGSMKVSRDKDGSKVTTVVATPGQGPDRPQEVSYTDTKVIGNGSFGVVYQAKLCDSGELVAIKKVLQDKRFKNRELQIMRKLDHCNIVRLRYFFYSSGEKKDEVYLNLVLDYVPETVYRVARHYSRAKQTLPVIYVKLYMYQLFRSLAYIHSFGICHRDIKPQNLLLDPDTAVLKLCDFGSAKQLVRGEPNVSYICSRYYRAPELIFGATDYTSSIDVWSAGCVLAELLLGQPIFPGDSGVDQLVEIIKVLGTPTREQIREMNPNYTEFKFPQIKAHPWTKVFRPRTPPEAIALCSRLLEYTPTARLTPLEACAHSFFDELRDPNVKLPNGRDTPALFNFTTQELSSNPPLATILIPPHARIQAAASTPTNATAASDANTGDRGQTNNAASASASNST

[16] = target: HCK (human) (UniProt P08631)
[17] = target: IGF1R (human) (UniProt P08069)
[18] = target: IRAK4 (human) (UniProt Q9NWZ3)
[19] = target: KDR (human) (UniProt P35968)
Chain of KDR (human) (P35968 whole entry, looked up): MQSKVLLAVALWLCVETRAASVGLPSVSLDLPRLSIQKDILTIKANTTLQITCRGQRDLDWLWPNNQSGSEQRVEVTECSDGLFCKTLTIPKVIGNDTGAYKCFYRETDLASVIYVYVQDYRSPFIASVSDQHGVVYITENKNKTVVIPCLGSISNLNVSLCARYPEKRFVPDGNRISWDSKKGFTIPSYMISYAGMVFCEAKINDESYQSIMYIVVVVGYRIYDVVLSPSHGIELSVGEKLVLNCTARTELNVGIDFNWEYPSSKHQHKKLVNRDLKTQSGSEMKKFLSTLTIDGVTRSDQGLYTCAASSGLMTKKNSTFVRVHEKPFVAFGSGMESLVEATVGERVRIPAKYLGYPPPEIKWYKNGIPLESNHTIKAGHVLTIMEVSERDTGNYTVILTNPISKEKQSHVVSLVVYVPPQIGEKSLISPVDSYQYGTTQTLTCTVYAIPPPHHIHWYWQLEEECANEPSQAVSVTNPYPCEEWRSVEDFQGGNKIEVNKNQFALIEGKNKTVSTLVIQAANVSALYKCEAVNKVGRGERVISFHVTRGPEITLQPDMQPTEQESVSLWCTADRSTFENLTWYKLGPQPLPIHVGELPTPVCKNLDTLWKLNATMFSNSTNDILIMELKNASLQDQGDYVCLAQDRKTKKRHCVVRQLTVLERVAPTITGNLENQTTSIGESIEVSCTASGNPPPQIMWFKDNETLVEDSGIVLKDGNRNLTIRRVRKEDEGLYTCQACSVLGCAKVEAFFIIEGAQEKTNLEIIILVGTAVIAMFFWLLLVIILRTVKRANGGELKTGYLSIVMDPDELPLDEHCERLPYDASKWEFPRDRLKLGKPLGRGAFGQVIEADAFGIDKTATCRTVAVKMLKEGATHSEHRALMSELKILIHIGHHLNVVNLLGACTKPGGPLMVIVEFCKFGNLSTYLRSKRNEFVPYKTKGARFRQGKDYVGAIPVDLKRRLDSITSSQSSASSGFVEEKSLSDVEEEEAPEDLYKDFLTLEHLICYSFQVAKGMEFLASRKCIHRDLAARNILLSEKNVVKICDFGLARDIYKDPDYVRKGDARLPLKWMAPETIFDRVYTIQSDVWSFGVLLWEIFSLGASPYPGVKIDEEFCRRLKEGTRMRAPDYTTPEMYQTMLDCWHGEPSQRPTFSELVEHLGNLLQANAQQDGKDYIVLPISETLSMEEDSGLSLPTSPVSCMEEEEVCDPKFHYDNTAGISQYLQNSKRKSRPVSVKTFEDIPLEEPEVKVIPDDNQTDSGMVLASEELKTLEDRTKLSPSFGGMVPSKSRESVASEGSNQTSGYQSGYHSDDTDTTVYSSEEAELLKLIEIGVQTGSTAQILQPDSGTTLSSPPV

[20] = target: LCK (human) (UniProt P06239)
[21] = target: LYN (human) (UniProt P07948)
[22] = target: MAP4K4 (human) (UniProt O95819)
Chain of MAP4K4 (human) (O95819 whole entry, looked up): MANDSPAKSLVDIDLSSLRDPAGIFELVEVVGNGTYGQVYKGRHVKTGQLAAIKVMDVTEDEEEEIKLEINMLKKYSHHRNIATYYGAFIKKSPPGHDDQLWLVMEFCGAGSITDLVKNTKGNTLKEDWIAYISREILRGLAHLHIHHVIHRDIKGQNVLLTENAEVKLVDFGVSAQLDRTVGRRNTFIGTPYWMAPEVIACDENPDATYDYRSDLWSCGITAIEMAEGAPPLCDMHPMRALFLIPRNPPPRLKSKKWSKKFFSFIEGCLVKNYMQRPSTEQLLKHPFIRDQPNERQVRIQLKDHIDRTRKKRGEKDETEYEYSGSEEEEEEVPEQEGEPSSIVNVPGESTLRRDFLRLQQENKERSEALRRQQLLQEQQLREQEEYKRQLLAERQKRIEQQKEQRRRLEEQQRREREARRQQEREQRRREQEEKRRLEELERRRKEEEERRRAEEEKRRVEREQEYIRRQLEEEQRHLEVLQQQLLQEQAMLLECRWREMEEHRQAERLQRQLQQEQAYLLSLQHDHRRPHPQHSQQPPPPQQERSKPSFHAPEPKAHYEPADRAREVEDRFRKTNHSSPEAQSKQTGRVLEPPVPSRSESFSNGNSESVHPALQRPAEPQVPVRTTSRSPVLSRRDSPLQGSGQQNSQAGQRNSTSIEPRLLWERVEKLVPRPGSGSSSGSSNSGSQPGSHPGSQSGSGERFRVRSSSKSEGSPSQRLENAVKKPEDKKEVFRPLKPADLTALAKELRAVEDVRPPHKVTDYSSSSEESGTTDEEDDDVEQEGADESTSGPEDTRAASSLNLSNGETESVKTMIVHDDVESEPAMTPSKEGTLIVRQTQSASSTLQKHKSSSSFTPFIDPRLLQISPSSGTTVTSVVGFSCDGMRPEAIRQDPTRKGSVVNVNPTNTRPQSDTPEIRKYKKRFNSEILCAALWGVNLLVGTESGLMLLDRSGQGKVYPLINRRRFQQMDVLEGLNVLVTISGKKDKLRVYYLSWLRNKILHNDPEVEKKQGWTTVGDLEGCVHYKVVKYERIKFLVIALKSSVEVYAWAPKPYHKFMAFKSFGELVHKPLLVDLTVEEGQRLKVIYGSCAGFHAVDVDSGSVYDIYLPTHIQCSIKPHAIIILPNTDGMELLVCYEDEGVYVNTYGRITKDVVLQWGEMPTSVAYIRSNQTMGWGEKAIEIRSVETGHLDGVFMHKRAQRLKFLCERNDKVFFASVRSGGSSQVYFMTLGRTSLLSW

[23] = target: MAPK13 (human) (UniProt O15264)
[24] = target: MAPKAPK3 (human) (UniProt Q16644)
[25] = target: PDGFRA (human) (UniProt P16234)
[26] = target: PIM1 (human) (UniProt P11309)
[27] = target: PRKACA (human) (UniProt P17612)
[28] = target: PRKCH (human) (UniProt P24723)
[29] = target: PRKCQ (human) (UniProt Q04759)
[30] = target: PRKCZ (human) (UniProt Q05513)
[31] = target: RPS6KA1 KD1 KD2 (human) (UniProt Q15418)
[32] = target: SGK3 (human) (UniProt Q96BR1)
Chain of SGK3 (human) (Q96BR1 whole entry, looked up): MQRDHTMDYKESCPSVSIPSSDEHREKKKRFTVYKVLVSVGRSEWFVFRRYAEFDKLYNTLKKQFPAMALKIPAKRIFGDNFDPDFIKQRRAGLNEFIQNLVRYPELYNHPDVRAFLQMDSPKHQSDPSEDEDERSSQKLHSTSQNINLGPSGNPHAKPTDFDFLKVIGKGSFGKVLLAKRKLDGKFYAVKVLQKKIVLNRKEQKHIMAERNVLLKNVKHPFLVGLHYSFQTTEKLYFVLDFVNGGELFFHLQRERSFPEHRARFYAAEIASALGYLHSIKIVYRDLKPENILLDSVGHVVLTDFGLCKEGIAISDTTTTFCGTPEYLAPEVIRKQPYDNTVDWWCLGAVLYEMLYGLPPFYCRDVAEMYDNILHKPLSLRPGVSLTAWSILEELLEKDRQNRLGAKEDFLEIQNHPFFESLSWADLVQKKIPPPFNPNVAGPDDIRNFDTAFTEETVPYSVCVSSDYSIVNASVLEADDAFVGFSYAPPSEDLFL

[33] = target: SRC (human) (UniProt P12931)
[34] = target: TSSK1B (human) (UniProt Q9BXA7)

Chain of BRSK1 (human) (Q8TDC3 whole entry, looked up): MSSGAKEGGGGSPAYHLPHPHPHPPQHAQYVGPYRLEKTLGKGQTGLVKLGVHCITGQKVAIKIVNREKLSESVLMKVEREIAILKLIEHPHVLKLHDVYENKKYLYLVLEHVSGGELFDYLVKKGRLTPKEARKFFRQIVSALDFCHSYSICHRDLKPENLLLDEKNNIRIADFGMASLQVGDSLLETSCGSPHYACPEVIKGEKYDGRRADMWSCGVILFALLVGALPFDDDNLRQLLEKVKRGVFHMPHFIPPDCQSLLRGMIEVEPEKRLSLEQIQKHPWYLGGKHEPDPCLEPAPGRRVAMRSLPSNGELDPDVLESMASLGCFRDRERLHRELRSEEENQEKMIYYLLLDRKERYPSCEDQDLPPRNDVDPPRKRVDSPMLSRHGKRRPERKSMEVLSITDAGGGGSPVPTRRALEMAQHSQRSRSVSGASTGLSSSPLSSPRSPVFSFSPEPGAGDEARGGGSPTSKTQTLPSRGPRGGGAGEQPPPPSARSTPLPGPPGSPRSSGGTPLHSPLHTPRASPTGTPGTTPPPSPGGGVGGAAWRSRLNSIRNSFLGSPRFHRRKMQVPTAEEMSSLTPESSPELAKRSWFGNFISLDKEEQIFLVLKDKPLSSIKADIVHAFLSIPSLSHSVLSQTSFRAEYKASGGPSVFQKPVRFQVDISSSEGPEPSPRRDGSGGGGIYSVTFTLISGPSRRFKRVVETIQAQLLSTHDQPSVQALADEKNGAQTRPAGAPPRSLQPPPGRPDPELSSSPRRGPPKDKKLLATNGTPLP
Chain of AKT3 (human) (Q9Y243 whole entry, looked up): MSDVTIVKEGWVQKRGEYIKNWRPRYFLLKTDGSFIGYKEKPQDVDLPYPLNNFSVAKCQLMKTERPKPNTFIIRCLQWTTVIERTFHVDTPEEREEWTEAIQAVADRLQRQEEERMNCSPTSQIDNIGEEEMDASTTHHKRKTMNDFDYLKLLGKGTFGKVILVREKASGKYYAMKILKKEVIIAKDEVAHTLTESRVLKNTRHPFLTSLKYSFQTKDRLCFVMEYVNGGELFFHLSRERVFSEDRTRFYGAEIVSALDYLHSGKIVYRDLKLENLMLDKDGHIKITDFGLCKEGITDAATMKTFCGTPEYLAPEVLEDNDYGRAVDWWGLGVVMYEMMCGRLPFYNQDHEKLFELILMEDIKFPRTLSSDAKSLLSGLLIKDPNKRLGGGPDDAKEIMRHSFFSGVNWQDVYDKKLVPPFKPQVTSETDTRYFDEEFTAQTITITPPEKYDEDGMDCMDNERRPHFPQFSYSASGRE

- inhibition ([1]; compound 0.1 µM): 8.2%
- inhibition ([1]; compound 1.0 µM): 36.3%
- inhibition ([2]; compound 0.1 µM): -2.4%
- inhibition ([2]; compound 1.0 µM): 18%
- inhibition ([3]; compound 0.1 µM): 6.2%
- inhibition ([3]; compound 1.0 µM): 5.2%
- inhibition ([4]; compound 0.1 µM): 3.3%
- inhibition ([4]; compound 1.0 µM): 0.5%
- inhibition ([5]; compound 0.1 µM): -0.7%
- inhibition ([5]; compound 1.0 µM): 6.6%
- inhibition ([6]; compound 0.1 µM): 5.9%
- inhibition ([6]; compound 1.0 µM): 12.1%
- inhibition [7]: 0.4%
- inhibition ([8]; compound 0.1 µM): 3.1%
- inhibition ([8]; compound 1.0 µM): 4.8%
- inhibition ([9]; compound 0.1 µM): 3.6%
- inhibition ([9]; compound 1.0 µM): 2.6%
- inhibition ([10]; compound 0.1 µM): 3.5%
- inhibition ([10]; compound 1.0 µM): 8.9%
- inhibition ([11]; compound 0.1 µM): 8.6%
- inhibition ([11]; compound 1.0 µM): 4.1%
- inhibition ([12]; compound 0.1 µM): 7.9%
- inhibition ([12]; compound 1.0 µM): 40.1%
- inhibition ([13]; compound 0.1 µM): 29.4%
- inhibition ([13]; compound 1.0 µM): 76.6%
- inhibition ([14]; compound 0.1 µM): 26.3%
- inhibition ([14]; compound 1.0 µM): 81%
- inhibition ([15]; compound 0.1 µM): -6.8%
- inhibition ([15]; compound 1.0 µM): 4.8%
- inhibition ([16]; compound 0.1 µM): 9.4%
- inhibition ([16]; compound 1.0 µM): 14.6%
- inhibition ([17]; compound 0.1 µM): -12.2%
- inhibition ([17]; compound 1.0 µM): -0.8%
- inhibition ([18]; compound 0.1 µM): 7%
- inhibition ([18]; compound 1.0 µM): 16.1%
- inhibition ([19]; compound 0.1 µM): 33.2%
- inhibition ([19]; compound 1.0 µM): 93.1%
- inhibition ([20]; compound 0.1 µM): -3.5%
- inhibition ([20]; compound 1.0 µM): 11.3%
- inhibition ([21]; compound 0.1 µM): 2.5%
- inhibition ([21]; compound 1.0 µM): 25.1%
- inhibition ([22]; compound 0.1 µM): 18.6%
- inhibition ([22]; compound 1.0 µM): 56.3%
- inhibition ([23]; compound 0.1 µM): -0.3%
- inhibition ([23]; compound 1.0 µM): 9.8%
- inhibition ([24]; compound 0.1 µM): -0.1%
- inhibition ([24]; compound 1.0 µM): -2.3%
- inhibition ([25]; compound 0.1 µM): -13.5%
- inhibition ([25]; compound 1.0 µM): 31.2%
- inhibition ([26]; compound 0.1 µM): -2.7%
- inhibition ([26]; compound 1.0 µM): 2.1%
- inhibition ([27]; compound 0.1 µM): -11.5%
- inhibition ([27]; compound 1.0 µM): -3.3%
- inhibition ([28]; compound 0.1 µM): 10%
- inhibition ([28]; compound 1.0 µM): 3.2%
- inhibition ([29]; compound 0.1 µM): -2.9%
- inhibition ([29]; compound 1.0 µM): -2%
- inhibition ([30]; compound 0.1 µM): 1.7%
- inhibition ([30]; compound 1.0 µM): 3.7%
- inhibition ([31]; compound 0.1 µM): -2.7%
- inhibition ([31]; compound 1.0 µM): 2.1%
- inhibition ([32]; compound 0.1 µM): -5.3%
- inhibition ([32]; compound 1.0 µM): 1.1%
- inhibition ([33]; compound 0.1 µM): -3.2%
- inhibition ([33]; compound 1.0 µM): 14.2%
- inhibition ([34]; compound 0.1 µM): -4.8%
- inhibition ([34]; compound 1.0 µM): 8.1%
SMILES: CN(c1ccc2ccc3ncc(-c4cnn(C)c4)cc3c(=O)c2c1)S(=O)(=O)NCc1ccccn1
